pEC50: −log10 of the molar value. Where only a bound is given, the exact number is not on record here.

In the first experiment the test system is HCV 1b genotype. Put plainly: HCV Replicon assay (HCV-neo replicon cells, wild-type). Format: cell-based. The conditions noted are these: HCV 1b genotype replicon; class symbols. On the procedure:
An HCV Replicon assay was utilized in the present disclosure, and was prepared, conducted and validated as described in commonly owned PCT/US2006/022197 and in O'Boyle et. al. Antimicrob Agents Chemother. 2005 April; 49 (4):1346-53. Assay methods incorporating luciferase reporters have also been used as described (Apath.com).
HCV-neo replicon cells and replicon cells containing mutations in the NS5A region were used to test the currently described family of compounds. The compounds were determined to have more than 10-fold less inhibitory activity on cells containing mutations than wild-type cells. Thus, the compounds of the present disclosure can be effective in inhibiting the function of the HCV NS5A protein and are understood to be as effective in combinations as previously described in application PCT/US2006/022197 and commonly owned WO/O4014852. Further, the compounds of the present disclosure can be effective against the HCV 1b genotype. It should also be understood that the compounds of the present disclosure can inhibit multiple genotypes of HCV. […] In one embodiment, compounds of the present disclosure are inhibitory versus 1a, 1b, 2a, 2b, 3a, 4a, and 5a genotypes.
On the technique in general: Replicon systems follow genome replication, usually without infectious particles.
Usually pEC50 stands for the EC50 on a negative log10 scale, so that one unit is a factor of ten. Consider `CCC(=O)N1CCC[C@H]1c1nc2cc(C#Cc3ccc4[nH]c([C@@H]5CCCN5C(=O)CC)nc4c3)ccc2[nH]1` [Example M2], for which the negative-log EC50 (pEC50) was 7.00 to 8.34.

As for `O=C(Cc1ccccn1)N1CCC[C@H]1c1nc2cc(C#Cc3ccc4[nH]c([C@@H]5CCCN5C(=O)Cc5ccccn5)nc4c3)ccc2[nH]1` [Example M7, 5,5′-(1,2-ethynediyl)bis(2-((2S)-1-(2-pyridinylacetyl)-2-pyrrolidinyl)-1H-benzimidazole)], the pEC50 was above 8.34.

Still in this experiment, the particulars now being: Hepatitis C virus, HCV 1b genotype replicon; class symbols.
With `CN(C)[C@@H](C(=O)N1CCC[C@H]1c1nc2cc(-c3cnc(-c4ccc5nc([C@@H]6CCCN6C(=O)[C@@H](c6ccccc6)N(C)C)[nH]c5c4)o3)ccc2[nH]1)c1ccccc1` [Example J20, (1R)-2-((2S)-2-(5-(2-(2-((2S)-1-((2R)-2-(dimethyl-amino)-2-phenylacetyl)-2-pyrrolidinyl)-1H-benzimidazol-6-yl)-1,3-oxazol-5-yl)-1H-benzimidazol-2-yl)-1-pyrrolidinyl)-N,N-dimethyl-2-oxo-1-phenyl-ethanamine], the pEC50 is above 8.34.

As for `CC(=O)N[C@@H](C(=O)N1CCC[C@H]1c1nc2cc(-c3cnc(-c4ccc5nc([C@@H]6CCCN6C(=O)[C@H](NC(C)=O)c6ccccc6)[nH]c5c4)o3)ccc2[nH]1)c1ccccc1` [Example J21, N-((1R)-2-((2S)-2-(5-(2-(2-((2S)-1-((2R)-2-acetamido-2-phenylacetyl)-2-pyrrolidinyl)-1H-benzimidazol-6-yl)-1,3-oxazol-5-yl)-1H-benzimidazol-2-yl)-1-pyrrolidinyl)-2-oxo-1-phenylethyl) acetamide], the pEC50 is above 8.34.

For the molecule `COc1cccc2c(C(=O)N3CCC[C@H]3c3nc4cc(-c5cnc(-c6ccc7nc([C@@H]8CCCN8C(=O)c8nc(Cl)cc9c(OC)cccc89)[nH]c7c6)o5)ccc4[nH]3)nc(Cl)cc12` [Example J22, 3-chloro-1-(((2S)-2-(5-(2-(2-((2S)-1-((3-chloro-5-methoxy-1-isoquinolinyl)carbonyl)-2-pyrrolidinyl)-1H-benzimidazol-6-yl)-1,3-oxazol-5-yl)-1H-benzimidazol-2-yl)-1-pyrrolidinyl)carbonyl)-5-methoxy-isoquinoline], the pEC50 was 5.00 to 6.00.

Regarding `CN(C)[C@@H](C(=O)N1CCC[C@H]1c1nc2cc(-c3cnc(-c4ccc5nc([C@@H]6C[C@@H]7C[C@@H]7N6C(=O)[C@@H](c6ccccc6)N(C)C)[nH]c5c4)o3)ccc2[nH]1)c1ccccc1` [Example J23, (1R)-2-((2S)-2-(5-(2-(2-((1S,3S,5S)-2-((2R)-2-(dimethyl-amino)-2-phenylacetyl)-2-azabicyclo[3. 1.0]hex-3-yl)-1H-benzimidazol-5-yl)-1,3-oxazol-5-yl)-1H-benzimidazol-2-yl)-1-pyrrolidinyl)-N,N-dimethyl-2-oxo-1-phenyl-ethanamine], the pEC50 is above 8.34.

For the molecule `CC(=O)N[C@@H](C(=O)N1CCC[C@H]1c1nc2cc(-c3cnc(-c4ccc5nc([C@@H]6C[C@@H]7C[C@@H]7N6C(=O)[C@H](NC(C)=O)c6ccccc6)[nH]c5c4)o3)ccc2[nH]1)c1ccccc1` [Example J24, N-((1R)-2-((2S)-2-(5-(2-(2-((1S,3S,5S)-2-((2R)-2-acetamido-2-phenylacetyl)-2-azabicyclo[3. 1.0]hex-3-yl)-1H-benzimidazol-5-yl)-1,3-oxazol-5-yl)-1H-benzimidazol-2-yl)-1-pyrrolidinyl)-2-oxo-1-phenylethyl) acetamide], the pEC50 was above 8.34.

With `CC(=O)N1CCC[C@H]1c1nc2c(-c3ncc(-c4ccc5[nH]c([C@@H]6CCCN6C(=O)[C@@H](c6ccccc6)N(C)C)nc5c4)o3)cccc2[nH]1` [Example J27, (1R)-2-((2S)-2-(5-(2-(2-((2S)-1-acetyl-2-pyrrolidinyl)-1H-benzimidazol-4-yl)-1,3-oxazol-5-yl)-1H-benzimidazol-2-yl)-1-pyrrolidinyl)-N,N-dimethyl-2-oxo-1-phenyl-ethanamine], the negative logarithm of the EC50 (pEC50) was above 8.34.

Consider `CN(C)CC(=O)N1CCC[C@H]1c1nc2c(-c3ncc(-c4ccc5[nH]c([C@@H]6CCCN6C(=O)[C@@H](c6ccccc6)N(C)C)nc5c4)o3)cccc2[nH]1` [Example J28, (1R)-2-((2S)-2-(5-(2-(2-((2S)-1-((dimethyl-amino)acetyl)-2-pyrrolidinyl)-1H-benzimidazol-4-yl)-1,3-oxazol-5-yl)-1H-benzimidazol-2-yl)-1-pyrrolidinyl)-N,N-dimethyl-2-oxo-1-phenyl-ethanamine], for which the pEC50 was above 8.34.

Consider `COC(=O)N[C@@H](C(=O)N1CCC[C@H]1c1nc2cc(-c3cnc(-c4cccc5[nH]c([C@@H]6CCCN6C(=O)[C@@H](c6ccccc6)N6CCN(C)CC6)nc45)o3)ccc2[nH]1)c1ccccc1` [Example J29, methyl ((1R)-2-(((2S)-2-(5-(2-(2-((2S)-1-((2R)-2-(4-methyl-1-piperazinyl)-2-phenylacetyl)-2-pyrrolidinyl)-1H-benzimidazol-4-yl)-1,3-oxazol-5-yl)-1H-benzimidazol-2-yl)-1-pyrrolidinyl)-2-oxo-1-phenylethyl) carbamate], for which the pEC50 is above 8.34.

For `CN(C)[C@@H](C(=O)N1CCC[C@H]1c1nc2ccc(C(=O)c3ccc4nc([C@@H]5CCCN5C(=O)[C@@H](c5ccccc5)N(C)C)[nH]c4c3)cc2[nH]1)c1ccccc1` [Example J32, bis(2-((2S)-1-((2R)-2-(dimethylamino)-2-phenylacetyl)-2-pyrrolidinyl)-1H-benzimidazol-5-yl)methanone], the negative-log EC50 (pEC50) is 7.00 to 8.34.

For the molecule `COC(=O)N[C@@H](C(=O)N1CCC[C@H]1c1nc2ccc(C(=O)c3ccc4nc([C@@H]5CCCN5C(=O)[C@H](NC(=O)OC)c5ccccc5)[nH]c4c3)cc2[nH]1)c1ccccc1` [Example J33], the pEC50 was above 8.34.

Take `C[C@@H](C(=O)N1CCC[C@H]1c1nc2cc(C#Cc3ccc4[nH]c([C@@H]5CCCN5C(=O)[C@H](C)c5ccccc5)nc4c3)ccc2[nH]1)c1ccccc1` [Example M1, 5,5′-(1,2-ethynediyl)bis(2-((2S)-1-((2R)-2-phenylpropanoyl)-2-pyrrolidinyl)-1H-benzimidazole)]: the pEC50 was above 8.34.

`CC(C)C(=O)N1CCC[C@H]1c1nc2cc(C#Cc3ccc4[nH]c([C@@H]5CCCN5C(=O)C(C)C)nc4c3)ccc2[nH]1` [Example M3, 5,5′-(1,2-ethynediyl)bis(2-((2S)-1-isobutyryl-2-pyrrolidinyl)-1H-benzimidazole)]: the pEC50 is 7.00 to 8.34.

For `O=C(C1CC1)N1CCC[C@H]1c1nc2cc(C#Cc3ccc4nc([C@@H]5CCCN5C(=O)C5CC5)[nH]c4c3)ccc2[nH]1` [Example M4, 2-((2S)-1-(cyclopropylcarbonyl)-2-pyrrolidinyl)-5-((2-((2S)-1-(cyclopropylcarbonyl)-2-pyrrolidinyl)-1H-benzimidazol-6-yl)ethynyl)-1H-benzimidazole], the pEC50 was 7.00 to 8.34.

As for `O=C(c1ccccc1)N1CCC[C@H]1c1nc2cc(C#Cc3ccc4nc([C@@H]5CCCN5C(=O)c5ccccc5)[nH]c4c3)ccc2[nH]1` [Example M6, 2-((2S)-1-benzoyl-2-pyrrolidinyl)-5-((2-((2S)-1-benzoyl-2-pyrrolidinyl)-1H-benzimidazol-6-yl)ethynyl)-1H-benzimidazole], the pEC50 was 7.00 to 8.34.

Consider `O=C(CC1CC1)N1CCC[C@H]1c1nc2cc(C#Cc3ccc4nc([C@@H]5CCCN5C(=O)CC5CC5)[nH]c4c3)ccc2[nH]1` [Example M8, 2-((2S)-1-(cyclopropylacetyl)-2-pyrrolidinyl)-5-((2-((2S)-1-(cyclopropylacetyl)-2-pyrrolidinyl)-1H-benzimidazol-6-yl)ethynyl)-1H-benzimidazole], for which the pEC50 was 7.00 to 8.34.

Regarding `O=C(C1CCC1)N1CCC[C@H]1c1nc2cc(C#Cc3ccc4nc([C@@H]5CCCN5C(=O)C5CCC5)[nH]c4c3)ccc2[nH]1` [Example M9, 2-((2S)-1-(cyclobutylcarbonyl)-2-pyrrolidinyl)-5-((2-((2S)-1-(cyclobutylcarbonyl)-2-pyrrolidinyl)-1H-benzimidazol-6-yl)ethynyl)-1H-benzimidazole], the pEC50 was 7.00 to 8.34.

The experiment is the same for the next values; noted with them: Hepatitis C virus, HCV 1b genotype replicon; numeric values.
As to `C[C@H](NC(=O)[C@@H](c1ccccc1)N(C)C)c1nc2c(-c3ncc(-c4ccc5[nH]c([C@@H]6CCCN6C(=O)[C@@H](c6ccccc6)N(C)C)nc5c4)o3)cccc2[nH]1` [Example J26, (2R)-2-(dimethyl-amino)-N-((1S)-1-(4-(5-(2-((2S)-1-((2R)-2-(dimethyl-amino)-2-phenylacetyl)-2-pyrrolidinyl)-1H-benzimidazol-5-yl)-1,3-oxazol-2-yl)-1H-benzimidazol-2-yl)ethyl)-2-phenyl-acetamide], the pEC50 is 10.68.

In the case of `COC(=O)N[C@@H](C(=O)N1CCC[C@H]1c1nc2c(-c3ncc(-c4ccc5[nH]c([C@@H]6CCCN6C(=O)[C@@H](c6ccccc6)N6CCN(C)CC6)nc5c4)o3)cccc2[nH]1)c1ccccc1` [Example J30, methyl ((1R)-2-((2S)-2-(4-(5-(2-((2S)-1-((2R)-2-(4-methyl-1-piperazinyl)-2-phenylacetyl)-2-pyrrolidinyl)-1H-benzimidazol-5-yl)-1,3-oxazol-2-yl)-1H-benzimidazol-2-yl)-1-pyrrolidinyl)-2-oxo-1-phenylethyl) carbamate], the negative-log EC50 (pEC50) is 10.24.

With `O=C([C@H]1CCCO1)N1CCC[C@H]1c1nc2cc(C#Cc3ccc4[nH]c([C@@H]5CCCN5C(=O)[C@H]5CCCO5)nc4c3)ccc2[nH]1` [Example M5, 5,5′-(1,2-ethynediyl)bis(2-((2S)-1-((2R)-tetrahydro-2-furanylcarbonyl)-2-pyrrolidinyl)-1H-benzimidazole)], the pEC50 was 8.00.

These data come from patent publication US7906655B2, “Hepatitis C virus inhibitors” (Bristol-Myers Squibb Company, priority 2008, dated 2011).
